Test results as given in a melting point compilation (Tetko et al.; mined from patent text by program, amines drawn as free bases though some values may be those of a salt).

melting point [°C]	SMILES
218 to 220	CCCCNC(=O)c1ccc(Cl)c(-n2nc(CCCC)n(Cc3ccc(-c4ccccc4S(=O)(=O)NC(=O)c4ccccc4Cl)cc3F)c2=O)c1
196 to 198	CC1(C#CC2(C(F)(F)F)C=NC(=O)Nc3ccc(Cl)cc32)CC1 (centres undefined)
78 to 80	Clc1cccc(Oc2ccc(OCc3ccc(Br)s3)cc2)n1
134 to 135	O=C(CCc1ccccc1)N[C@H](Cc1ccc(C(F)(F)F)cc1)[C@@H](O)c1cccc(Oc2ccccc2)c1 (racemic)
116 to 117	COc1ccc2c(ccn2CC(=O)c2ccccc2Br)n1
137 to 140	C[C@]1(COC(=O)N2CCC(Nc3ccc(C(F)(F)F)cc3)CC2)Cn2cc([N+](=O)[O-])nc2O1
200 to 201	CSc1cc2n(c1C(=O)c1ccc(Cl)cc1)CCC2C(=O)O (centres undefined)
97 to 98	CCC(=O)N(N(CCCl)S(C)(=O)=O)S(C)(=O)=O
57.5 to 58	CCCCCCCCCCCCCCCCCCOCC(COC(c1ccccc1)(c1ccccc1)c1ccccc1)OC(=O)N(C)C (centres undefined)
179 to 180	Nc1nc2[nH]c(CCCCc3ccc(C(=O)N[C@@H](CCC(=O)O)C(=O)O)s3)cc2c(=O)[nH]1
112	CN1C(=O)CN(c2ccccc2)C1=S
157 to 162	CCOC(=O)C1=C(C)NC(c2ncc[nH]2)=NC1c1ccc(F)cc1Cl (centres undefined)
179	COc1cc(NNc2nccc(Nc3ccc4nc(C)[nH]c4c3)n2)cc(OC)c1OC
49 to 51	COc1c(C)cnc(CO)c1C
144 to 145	O=S(=O)(C1CC1)C(F)(F)C(O)(Cn1cncn1)c1ccc(F)cc1 (single isomer, unassigned; (+))
196	On1cc(-c2ccccc2)[nH]c1=S
150	CCCCCCCCCC(C)(C)c1cc(-c2cc3ccc(C(=O)O)cc3o2)ccc1OC
95.5 to 97	CCC(C(=O)OC)(C(=O)OC)C(Cc1cc(Cl)ccc1[N+](=O)[O-])c1ccc(OC)cc1 (centres undefined)

melting point [°C]	SMILES
197 to 198	CNS(=O)(=O)c1ccccc1Nc1nc(Nc2ccc3c(c2)CNC(=O)CCN3)ncc1Cl
112	COc1ccc(O)c(CN2CCN(C(=S)SC)CC2)c1
214 to 215	CC(C)n1nc(-c2c(Sc3ccccc3)nc(N)nc2-c2ccccc2)ccc1=O
132 to 137	CS(=O)(=O)CC(=O)c1ccc(Cl)cc1
183 to 184	O=C(NC=CCc1cn(C2CC(O)C(CO)O2)c(=O)[nH]c1=O)C(F)(F)F (centres undefined)
184 to 186	FC(F)(F)Oc1ccc(C=CC(C=Cc2ccc(OC(F)(F)F)cc2)=NNC2=NCCCCN2)cc1
119 to 120	COc1cccc(-c2oc3ccccc3c(=O)c2OCCCCCCN2CCC(O)CC2)c1
115 to 117	COC(=O)c1cccc([N+](=O)[O-])c1NCc1ccc(-c2ccccc2-c2nnnn2Cc2ccccc2)cc1
195 to 197	CCCCc1oc2ccccc2c1C(=O)NCc1ccc2c(-c3ccc(C(C)(C)C)cc3)c(O)ccc2c1
227 to 229	O=P1(c2ccccc2)c2ccccc2CN1c1ccccc1 (centres undefined)
136 to 141	O=C(CCNC(=O)OCc1ccccc1)NC1C(C(=O)O)OC(n2cnc3c(NC(=O)c4ccccc4)ncnc32)C1O (centres undefined)
106	COc1ccc(-c2nc(Sc3ccc(F)cc3)[nH]c2-c2ccc(OC)cc2)cc1
220 to 221	CCc1nc2c(N)nc3cccnc3c2n1CCCCCC(N)=O
105 to 106	Cc1cccc(C)c1NCCNCC(O)COc1ccc(F)cc1 (centres undefined)
115 to 117	CC(C)CC1(CC(=O)NOCc2ccccc2)CC(=O)N(CCc2ccccc2)C1=O (centres undefined)
113 to 114	CCOC(=O)/C=C/c1cn(Cc2ccc(OCc3ccccc3)cc2)nc1-c1ccc(F)cc1
85 to 87	COc1ccc(C(C)C)cc1-c1cc(-c2nnnn2C2CCNC2)c(OCc2ccccc2)cc1OCc1ccccc1 (centres undefined)
159	COC(=O)C1(Cl)CC(=O)N(c2ccc(Cl)cc2)C1=C(Cl)Cl (centres undefined)

The next lines start with the compound.

SMILES	melting point [°C]
Cc1cc2c(=O)[nH]c(CCl)nc2cc1Cl	287 to 290
COC(=O)c1cnc(CO)n1C	145 to 147
CCc1cc2c(c(CC)n1)c(C)c(C)c(=O)n2Cc1ccc(-c2ccccc2-c2nnn(C(c3ccccc3)(c3ccccc3)c3ccccc3)n2)cc1	159 to 160
CS(=O)(=O)c1ccccc1OCCF	67 to 69
Nc1ccc(C=Cc2ccncn2)cc1	227 to 230
Clc1cn2ccnc2c(Br)n1	146 to 147
CC(C)COC(=O)/C=C/C1NC(=O)CN1C(=O)OCc1ccccc1 (centres undefined)	97 to 100
O=C(O)CCC(=NOCc1ccc(OCc2ccccc2)cc1)c1ccccc1	86 to 87
O=C(N[C@H]1CCCNC1=O)c1ccccc1F	166 to 168
CC(C)c1nc2c3c(c(C(=O)N(C)C)cc2n1C)CCC(c1ccccc1)O3 (centres undefined)	179 to 180
CC1CNCCC1n1c(=O)[nH]c2cc(Cl)ccc21 (centres undefined)	199
O=C1CN(c2ccccc2)C1=O	115 to 117
CC(C)(n1cncn1)C(O)(Cn1cncn1)c1ccc(Cl)cc1 (centres undefined)	114
CCCN(Sc1nc2ccccc2s1)C(C)(C)C	55 to 56
CN1CCC(N2C(=O)Nc3ccccc3C2c2ccccc2)CC1 (centres undefined)	252 to 253
CC(C)(C)OC(=O)N1CCN(C(=O)N2CCC(c3[nH]nc4c3C(=O)c3c(NC(=O)NN5CCOCC5)cccc3-4)CC2)CC1	231 to 232
C=C(c1ccc(Cl)cc1)C1(n2ccnc2)CC1	94 to 95

SMILES	melting point [°C]
Cc1oc(-c2ccccc2)nc1COc1nn(Cc2ccc(Oc3ccccc3)cc2)cc1CO	103 to 104
O=C1CCC(=O)N1c1nc(Nc2ccc(O)c(Cl)c2)cc(-c2ccccc2)n1	274 to 276
CC12CC(N3CCC(=O)CC3)C(O)CC1CCC1C2CCC2(C)C(O)C(N3CCCC3)CC12 (centres undefined)	136 to 138
CCOC(=O)c1cnn(-c2ccc3ccccc3n2)c1S(N)(=O)=O	140 to 141
Cc1oc(-c2cccs2)nc1CC#N	185
CC(Oc1ccc(CCNCC(O)COc2ccccc2)cc1)C(N)=O (centres undefined)	117 to 119
Cc1cccc(OCCF)c1S(N)(=O)=O	103
CNC(=O)NC(=O)C(CC1CCCC1)c1ccc(S(C)(=O)=O)c([N+](=O)[O-])c1 (centres undefined)	241 to 242
COc1cc(-c2nc(N)sc2CCC2CCCCC2)c(OC)cc1C	112
O=C(O)CCCC(=O)NCCCCCC1CCSS1 (centres undefined)	60 to 62
c1ccn(NC2=NCCN2)c1	183 to 184
CCC(C(=O)O)N(C(=O)c1cn(-c2cc(C(F)(F)F)ccc2Cl)nc1C)c1ccc(OCC(C)(C)C)c(C#N)c1 (centres undefined)	134 to 135
CN1CC(CN)Oc2c(-c3ccccc3C(F)(F)F)cccc21 (centres undefined)	90
CCN(CC)C(=O)Nc1ccc(Cn2c(=O)n(C3CCCCC3)c3cc(Cl)ccc32)c(OC)c1	190
O=c1oc2c(Br)cccc2cc1S(=O)(=O)Nc1ccc(Br)cc1	206 to 208
CC(C)(C)OC(=O)NC(Cc1ccccc1)C(O)C(O)C(Cc1ccccc1)NC(=O)OC(C)(C)C (centres undefined)	208 to 212
